Measured values reported in patent publication US20050038058A1, “Novel compounds and methods for therapy” (Institute of Organic Chemistry and Biochemistry, priority 2001, published 2005).
≈ marks a conversion by molar mass, not a printed value.

Legend:
HIV-1(IIIB) = test: HIV-1(IIIB)-induced cytopathicity in CEM cell cultures; type: cell-based; details: for EC50: Human immunodeficiency virus 1, CCRF-CEM, read-out: EC50 HIV-1 (CEM)
Description: Viruses. The origins of MSV, HIV type 1 (HIV-1) (strain IIIB and Ba-L), HIV-2 (strain ROD) and FIV (strain Petaluma) have been described previously (Balzarini et al., AIDS 5: 21-28, 1991; De Clercq et al., Proc. Soc. Exp. Biol. Med. 137:590-594, 1971; Egberink et al., Proc. Natl. Acad. Sci. 87:3087-3091, 1990; Hartmann et al., Antiviral Chem. Chemother. 5:13-19, 1994; Popovic et al., Science 224:497-500, 1984). HIV-1(IIIB) and HIV-2(ROD) stocks were obtained from supernatants of virus-infected MT-4 cell cultures. HIV-1BaL was expanded in human primary M/M, whose supernatants were collected, filtered and stored at −80° C. before use. Characteristics of viral stocks used for this study were 2.1×10^8 HIV-RNA genomes/ml (corresponding to 35 ng of p24 antigen) and 5,000 tissue culture infectious doses 50% per ml (TCID50/ml) as assessed by virus titration in other primary M/M cultures. The isolation and characterization of the clinical HIV-1 isolates L1S, L6S and L6S/PMEA has been reported (Thormar et al., Proc. Natl. Acad. Sci. USA 93:3283-3287, 1995; Van Laethem et al., AIDS 15:553-561, 2001). […] HIV-1/L6S/PMEA is the clinical isolate HIV-1/L6S that has been isolated after culturing the virus for 11 passages in the presence of increasing concentrations of PMEA (adefovir).
In vitro antiviral assays. The activity against HIV-1- and HIV-2-induced cytopathicity was examined in MT-4 cell cultures at day 5 post infection and based on the determination of cell viability by trypan blue dye staining or in CEM cell cultures at day 4 to 5 post infection and based on the microscopical examination of virus-induced giant cell formation. HIV-1 and HIV-2 were added at 100 CCID50 to the cell cultures.

[1] = Inhibition of CEM cell growth (cytostatic activity); type: cell-based; details: human, CEM cells, 50% cytostatic concentration, CEM cell proliferation; Table 1; read-out: CC50 (CEM)
Procedure: (§1) Cytostatic and antimetabolic effect of acyclic nucleoside phosphonates in vitro. The assays to examine the inhibition of CEM cell growth by the test compounds have been described previously (Balzarini et al., AIDS 5:21-28, 1991). The 50% cytostatic concentration (CC50) was defined as the concentration of compound that reduced the number of living cells by 50% . To measure MT-4 cell toxicity of the test compounds, 5×10^4 MT-4 cells were incubated in the wells of 96-well microplates in the presence or absence of different concentrations of the test compounds for 5 days at 37° C. The CC50 was then calculated from the number of living cells counted under a microscope by the trypan blue exclusion method.

CEM cells = test: as above; type: cell-based; details: 50% cytostatic concentration, CEM cell proliferation; Table 1
Procedure: as §1

HSV-1 (KOS) = test: Antiviral activity, HSV-1 (KOS), Table 1a; type: cell-based; details: Human alphaherpesvirus 1
HSV-2 (G) = test: Antiviral activity, HSV-2 (G), Table 1a; type: cell-based; details: Human alphaherpesvirus 2
HSV-1 TK- VMW 1837 = test: Antiviral activity, HSV-1 TK- VMW 1837, Table 1a; type: cell-based; details: Human alphaherpesvirus 1, read-out: Antiviral Activity EC50 HSV-1 TK- VMW 1837
CMV AD-169 = test: Antiviral activity, CMV AD-169, Table 1a; type: cell-based; details: Human betaherpesvirus 5, AD169
CMV Davis = test: Antiviral activity, CMV Davis, Table 1a; type: cell-based; details: Human betaherpesvirus 5
VZV TK + OKA = test: Antiviral activity, VZV TK+ OKA, Table 1a; type: cell-based; details: Human alphaherpesvirus 3, read-out: Antiviral Activity EC50 VZV TK + OKA
VZV TK + YS = test: Antiviral activity, VZV TK+ YS, Table 1a; type: cell-based; details: Human alphaherpesvirus 3
VZV TK − 07/1 = test: Antiviral activity, VZV TK- 07/1, Table 1a; type: cell-based; details: Human alphaherpesvirus 3, read-out: Antiviral Activity EC50 VZV TK − 07/1
VZV TK − YS/R = test: Antiviral activity, VZV TK- YS/R, Table 1a; type: cell-based; details: Human alphaherpesvirus 3, read-out: Antiviral Activity EC50 VZV TK − YS/R
MSV = test: Antiviral activity, MSV, Table 1a; type: cell-based
HIV-2 = test: Antiviral activity, HIV-2, Table 1a; type: cell-based; details: Human immunodeficiency virus 2
HIV-1 = test: microbe, parasite or virus in culture; details: Human immunodeficiency virus 1, read-out: Antiviral Activity EC50 HIV-1
[2] = HIV-1(IIIB)-induced cytopathicity in CEM cell cultures, Table 1

Row | Compound | Antiretroviral (anti-HIV-1) activity in CEM cell cultures, in words (HIV-1(IIIB)) | EC50 (HIV-1(IIIB); [2]) | CC50 [1] | EC50 (HSV-1 (KOS)) | EC50 (HSV-2 (G)) | EC50 (HSV-1 TK- VMW 1837) | EC50 (CMV AD-169) | EC50 (CMV Davis) | EC50 (VZV TK + OKA) | EC50 (VZV TK + YS) | EC50 (VZV TK − 07/1) | EC50 (VZV TK − YS/R) | EC50 (MSV) | EC50 (HIV-2) | EC50 (HIV-1) | further results
1 | Nc1cc(OCCOCP(=O)(O)O)ncn1 [Compound 3, 4-amino-6-[2-(phosphonomethoxy)ethoxy]pyrimidine] | complete annihilation of the antiretroviral activity | > 100 µg/mL | > 100 µg/mL |  |  |  |  |  |  |  |  |  |  |  |  | 
2 | Nc1nc(O)cc(SCCOCP(=O)(O)O)n1 [Compound 5, 2-amino-4-hydroxy-6-{[2-(phosphono-methoxy)ethyl]sulfanyl}pyrimidine] | completely inactive | > 100 µg/mL | > 100 µg/mL |  |  |  |  |  |  |  |  |  |  |  |  | 
3 | CN(C)c1cc(OCCOCP(=O)(O)O)nc(N)n1 [Compound 6, 2-amino-4-dimethylamino-6-[2-(phosphonomethoxy)-ethoxy]pyrimidine] | complete annihilation of the antiretroviral activity | > 100 µg/mL | > 100 µg/mL |  |  |  |  |  |  |  |  |  |  |  |  | 
4 | Nc1nc(NC2CC2)cc(OCCOCP(=O)(O)O)n1 [Compound 7, 2-amino-4-cyclopropylamino-6-[2-(phosphonomethoxy)ethoxy]pyrimi-dine] | complete annihilation of the antiretroviral activity |  |  |  |  |  |  |  |  |  |  |  |  |  |  | EC50 HIV-1 (CEM) (HIV-1(IIIB); [2]): >100 µg/mL; CC50 (CEM) (CEM cells): >100 µg/mL
5 | CSc1nc(N)cc(OCCOCP(=O)(O)O)n1 [Compound 8, 4-amino-2-methylsulfanyl-6-[2-(phosphonomethoxy)ethoxy]pyrimidine] | complete annihilation of the antiretroviral activity | > 100 µg/mL | > 100 µg/mL |  |  |  |  |  |  |  |  |  |  |  |  | 
6 | Cc1cc(OCCOCP(=O)(O)O)nc(N)n1 [Compound 9, 2-amino-4-methyl-6-[2-(phosphonomethoxy)ethoxy]pyrimidine] | complete annihilation of the antiretroviral activity | > 100 µg/mL | > 100 µg/mL |  |  |  |  |  |  |  |  |  |  |  |  | 
7 | Nc1cc(OCCOCP(=O)(O)O)nc(N)n1 [Compound H-3404] |  |  |  | 6.5 µg/mL (≈ 24.6 µM) | 24 µg/mL (≈ 90.8 µM) | 9.6 µg/mL (≈ 36.3 µM) | > 50 µg/mL | > 50 µg/mL | 1.2 µg/mL | 1.1 µg/mL | 2.5 µg/mL (≈ 9.46 µM) | 1.6 µg/mL (≈ 6.06 µM) | 0.035 ± 0.002 µg/mL (≈ 0.132 µM) | 0.43 ± 0.32 µg/mL (≈ 1.63 µM) | 0.8 µg/mL (≈ 3.03 µM) | 
8 | Nc1cc(SCCOCP(=O)(O)O)nc(N)n1 [Compound H-3408] |  |  |  | 29 µg/mL (≈ 103 µM) | ≥ 80 µg/mL | 48 µg/mL (≈ 171 µM) | > 50 µg/mL | > 50 µg/mL | 7.5 µg/mL | 7 µg/mL | 20 µg/mL (≈ 71.4 µM) | 15 µg/mL (≈ 53.5 µM) | 1.7 µg/mL (≈ 6.07 µM) | 3 ± 1.4 µg/mL (≈ 10.7 µM) | 5.5 ± 2.1 µg/mL (≈ 19.6 µM) | 
9 | Nc1cc(OCCOCP(=O)(O)O)ncn1 [Compound H-3418] |  |  |  | > 16 µg/mL | > 16 µg/mL | > 16 µg/mL | > 50 µg/mL | > 50 µg/mL | > 50 µg/mL | > 50 µg/mL | > 50 µg/mL | > 50 µg/mL | 12.6 ± 7.6 µg/mL (≈ 50.6 µM) | > 100 µg/mL | > 100 µg/mL | 
10 | CN(C)c1cc(OCCOCP(=O)(O)O)nc(N)n1 [Compound H-3427] |  |  |  | > 400 µg/mL | > 400 µg/mL | > 400 µg/mL | > 50 µg/mL | > 50 µg/mL | > 50 µg/mL | > 50 µg/mL | > 50 µg/mL | > 50 µg/mL | 139 ± 11 µg/mL (≈ 476 µM) | > 100 µg/mL | > 100 µg/mL | 
11 | Nc1nc(NC2CC2)cc(OCCOCP(=O)(O)O)n1 [Compound H-3435] |  |  |  | 240 µg/mL (≈ 789 µM) | > 80 µg/mL |  | > 50 µg/mL | > 50 µg/mL | > 20 µg/mL | > 50 µg/mL | > 50 µg/mL | > 50 µg/mL | > 40 µg/mL | > 100 µg/mL | > 100 µg/mL | 
12 | Nc1nc(OCCOCP(=O)(O)O)cc(OCCOCP(=O)(O)O)n1 [Compound H-3444] |  |  |  | 240 µg/mL (≈ 595 µM) | > 400 µg/mL |  | > 50 µg/mL | > 50 µg/mL | > 50 µg/mL | > 50 µg/mL | > 50 µg/mL | > 50 µg/mL | 4.26 ± 0.75 µg/mL (≈ 10.6 µM) | 80 ± 34.6 µg/mL (≈ 198 µM) | 56.7 ± 37.9 µg/mL (≈ 141 µM) | 
13 | Nc1nc(OCCOCP(=O)(O)O)cc(=O)n1CCOCP(=O)(O)O [Compound H-3445] |  |  |  | > 400 µg/mL | > 400 µg/mL | > 400 µg/mL | > 50 µg/mL | > 50 µg/mL | > 50 µg/mL | > 50 µg/mL | > 50 µg/mL | > 50 µg/mL | 107 ± 10 µg/mL (≈ 265 µM) | > 100 µg/mL | > 100 µg/mL | 
14 | Cc1cc(OCCOCP(=O)(O)O)nc(N)n1 [Compound H-3453] |  |  |  | > 400 µg/mL | > 400 µg/mL | > 400 µg/mL | > 50 µg/mL | > 50 µg/mL | > 50 µg/mL | > 50 µg/mL | > 50 µg/mL | > 50 µg/mL | 89.4 ± 37.6 µg/mL (≈ 340 µM) | > 100 µg/mL | > 100 µg/mL | 
15 | Nc1nc(O)cc(OCCOCP(=O)(O)O)n1 [Compound H-3574] |  |  |  | 9.6 µg/mL (≈ 36.2 µM) | 9.6 µg/mL (≈ 36.2 µM) |  | 14 µg/mL (≈ 52.8 µM) | 16 µg/mL (≈ 60.3 µM) | 1.1 µg/mL | 0.9 µg/mL |  | 0.6 µg/mL (≈ 2.26 µM) | 0.08 µg/mL (≈ 0.302 µM) |  | > 0.8 µg/mL | 
16 | Nc1nc2c(ncn2CCOCP(=O)(O)O)c(=O)[nH]1 [PMEG, reference compound] |  |  |  |  |  |  |  |  |  |  |  |  |  |  |  | EC50 as such (HIV-1(IIIB); HIV-1 (IIIB) in CEM, no addition, Table 3): >0.05 µg/mL; EC50 upon addition of Ade (100 μM) (HIV-1(IIIB); HIV-1 (IIIB) in CEM, Ade 100 μM): >0.05 µg/mL; EC50 upon addition of Ado (400 μM) (HIV-1(IIIB); HIV-1 (IIIB) in CEM, Ado 400 μM): >0.05 µg/mL; EC50 upon addition of Guo (10 μM) (HIV-1(IIIB); HIV-1 (IIIB) in CEM, Guo 10 μM): >0.05 µg/mL; EC50 upon addition of dCyd (1 mM) (HIV-1(IIIB); HIV-1 (IIIB) in CEM, dCyd 1 mM): >0.25 µg/mL; EC50 upon addition of dThd (10 μM) (HIV-1(IIIB); HIV-1 (IIIB) in CEM, dThd 10 μM): >0.25 µg/mL
